Consider four compounds from US20230002334A1, “TRPM8 MODULATORS” (Givaudan SA, priority 2019, published 2023).

For one test, the target named is T1, hTRPM8 (Homo sapiens, UniProt Q7Z2W7).
T1 construct: expressed in transfected cells
In words: Assay on TRPM8 modulators: calcium imaging (Fluo-4, Flexstation) in HEK293 cell line stably expressing hTRPM8. The test is classed as cell-based. The settings on record: HEK293 cells stably expressing hTRPM8, calcium influx, sigmoidal dose-response fit; read-out: EC50. In a few lines:
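Calcium influx monitored by Fluo-4 (2.7 μM with […] probenecid, 1 h 37 °C loading) in HEK293 cells stably expressing hTRPM8, in HEPES buffer pH 7.4 with 2 mM CaCl2. Fluorescence read 15 s before and 105 s after adding serial compound dilutions. Maximal activation relative to solvent and 31.6 μM menthol; EC50 from sigmoidal fit.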

The test system of test [1] is panelists (mouth, mucosa). The experiment in a line: Sensory studies in aqueous solution (trained panel, swilling in the mouth). The test is classed as in vivo, human. The settings on record: 40 ppm in aqueous solution; for time of max cooling / Max. cooling: 20 mL swilled 60 seconds; for Max. cooling / Cooling after 1 h: averaged panel score on scale 0 to 10; for Cooling after 1 h: 1 h after swilling. The procedure:
The compounds as listed below in Table 2 were dissolved at a concenteration of 1 wt-% in propylene glycol. These solutions were then dispensed in appropriate quantities into deionized water containing 0.5 wt-% Poloxamer 407 (which is a hydrophilic non-ionic surfactant, e.g., commercially available from SigmaAldrich) and 0.25 wt-% Cremaphor® RH40 (obtained from BASF) as solubilizer, to obtain the desired final concentration of 40 ppm (parts per milion) of the respective compound.
A trained group of panelists evaluated the aqueous solutions containing test compound by swilling 20 mL of the solution in the mouth for 60 seconds, followed by spitting, without rinsing the mouth afterwards for the duration of the evaluation. Panelists evaluated and recorded the cooling performance as well as other sensorial and organoleptic attributes at different timepoints over a period of two hours. Cooling performance was rated on a scale from 0 to 10 with 0 being no effect and 10 being freezing. Scores were averaged for all panelists and the cooling intensity qualified as “N” for “none” (score of 0), “L” for “low” (score above 0, up to 1), “M” for “medium” (score above 1, up to 4), “S” for “strong” (score above 4, up to 8) and “E” for “extreme” (score above 8), which are provided in Table 2. […] All tasted samples developed cooling sensation starting during swilling (almost immediately upon contact with the mucosa) and before expectorating.

The test system of the next test is panelists (mouth). In words: Sensory studies in model dentifrice (trained panel, tooth brushing). The test is classed as in vivo, human. The settings on record: 100 ppm in model unflavored dentifrice; for time of max cooling / Max. cooling: 1 g brushed 60 seconds; for Max. cooling / Cooling after 1 h: averaged panel score on scale 0 to 10; for Cooling after 1 h: 1 h after brushing. The procedure: The compounds listed in Table 3 were dissolved at a concenteration of 1 wt-% in propylene glycol. These solutions were then dispersed in appropriate quantities to obtain the desired final concentration of 100 ppm (parts per milion) of the test compound into a model, unflavored dentifrice, the formula of which is given below (ingredients obtained from the suppliers respectively indicated in parenthesis).
A trained group of panelists evaluated the dentifrice containing a compound of formula (I), by brushing their teeth with 1 g of the dentifrice using a toothbrush for 60 seconds, followed by spitting, without rinsing the mouth afterwards for the duration of the evaluation. Panelists evaluated and recorded the cooling performance as well as other sensorial and organoleptic attributes at different timepoints over a period of two hours. Cooling performance was rated on a scale from 0 to 10 with 0 being no effect and 10 being freezing. Scores were averaged for all panelists and the cooling intensity qualified as “N” for “none” (score of 0), “L” for “low” (score above 0, up to 1), “M” for “medium” (score above 1, up to 4), “S” for “strong” (score above 4, up to 8) and “E” for “extreme” (score above 8), which are summarized below in Table 3. […] All tasted samples developed cooling sensation starting during brushing, before expectorating.

Each structure is given as a SMILES string. pEC50: −log10 of the molar value.

T1 sequence (Q7Z2W7 whole entry): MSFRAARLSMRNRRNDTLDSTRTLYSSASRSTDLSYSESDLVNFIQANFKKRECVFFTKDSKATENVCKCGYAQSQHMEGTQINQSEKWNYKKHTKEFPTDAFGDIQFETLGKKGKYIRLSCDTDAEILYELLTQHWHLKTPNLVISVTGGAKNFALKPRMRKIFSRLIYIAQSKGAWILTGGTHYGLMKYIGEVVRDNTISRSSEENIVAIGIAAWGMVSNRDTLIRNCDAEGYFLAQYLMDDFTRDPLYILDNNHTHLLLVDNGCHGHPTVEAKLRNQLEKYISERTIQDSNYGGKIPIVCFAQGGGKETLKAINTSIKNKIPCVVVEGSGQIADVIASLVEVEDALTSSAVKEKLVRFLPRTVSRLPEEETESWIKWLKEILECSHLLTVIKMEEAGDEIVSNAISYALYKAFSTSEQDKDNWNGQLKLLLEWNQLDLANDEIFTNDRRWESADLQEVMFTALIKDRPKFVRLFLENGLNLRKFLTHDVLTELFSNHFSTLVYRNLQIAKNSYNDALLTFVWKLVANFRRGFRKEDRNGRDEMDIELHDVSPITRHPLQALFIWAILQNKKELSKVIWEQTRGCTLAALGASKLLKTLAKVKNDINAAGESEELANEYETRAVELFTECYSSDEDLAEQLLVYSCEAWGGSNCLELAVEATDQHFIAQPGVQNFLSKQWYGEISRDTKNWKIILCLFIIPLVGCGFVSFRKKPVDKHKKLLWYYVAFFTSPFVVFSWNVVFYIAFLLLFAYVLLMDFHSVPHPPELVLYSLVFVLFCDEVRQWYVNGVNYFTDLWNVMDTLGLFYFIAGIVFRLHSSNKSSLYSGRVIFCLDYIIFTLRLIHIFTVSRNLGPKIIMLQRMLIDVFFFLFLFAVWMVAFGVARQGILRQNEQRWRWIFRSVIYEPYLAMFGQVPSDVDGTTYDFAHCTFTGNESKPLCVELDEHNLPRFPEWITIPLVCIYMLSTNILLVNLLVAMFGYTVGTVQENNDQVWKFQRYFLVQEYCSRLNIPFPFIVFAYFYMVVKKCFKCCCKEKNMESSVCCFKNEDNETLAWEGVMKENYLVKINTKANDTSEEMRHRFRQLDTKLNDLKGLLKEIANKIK

As to `Cc1ccccc1[C@@]1(C)C[C@@H]2[C@@H]([C@@H](C)C1)N(C)OC2(C)C` (racemic) [Compound 46, rac-(3aR,5R,7S,7aR)-1,3,3,5,7-pentamethyl-5-(o-tolyl)octahydrobenzo[c]isoxazole], on hTRPM8, the pEC50 is over 7.30. Further, in test [1], the “time of max cooling” value is 10 min; the Max. cooling result is reported as “S (“S” for “strong” (score above 4, up to 8))”; the “Cooling after 1 h” value is “M (“M” for “medium” (score above 1, up to 4))”. In the test with panelists (mouth), the “time of max cooling” value turned out to be 20 min; the Max. cooling entry is on record as “S (“S” for “strong” (score above 4, up to 8))”; the “Cooling after 1 h” value is “M (“M” for “medium” (score above 1, up to 4))”.
As for `Cc1ccc(C#N)cc1[C@@]1(C)C[C@@H]2[C@@H]([C@@H](C)C1)N(C)OC2(C)C` (stereo in doubt) [Compound 135, rac-4-methyl-3-((3aR,5R,7S,7aR)-1,3,3,5,7-pentamethyloctahydrobenzo[c]isoxazol-5-yl)benzonitrile], the pEC50 on hTRPM8 is over 7.30. In test [1], the “time of max cooling” value was found to be 10 min; the Max. cooling entry is “E (“E” for “extreme” (score above 8))”; the “Cooling after 1 h” value is “M (“M” for “medium” (score above 1, up to 4))”. In the test on panelists (mouth), the “time of max cooling” value turned out to be 5 min; the Max. cooling result is “S (“S” for “strong” (score above 4, up to 8))”; the “Cooling after 1 h” value was “M (“M” for “medium” (score above 1, up to 4))”.
On to `C[C@H]1C[C@@](C)(c2ccccc2)C[C@@H]2[C@@H]1N(C)OC2(C)C` (racemic) [Compound 48, rac-(3aR,5R,7S,7aR)-1,3,3,5,7-pentamethyl-5-phenyloctahydrobenzo[c]isoxazole], for which the pEC50 on hTRPM8 is 6.52 to 7.30. In test [1], the “time of max cooling” value worked out at 10 min; the Max. cooling entry is on record as “S (“S” for “strong” (score above 4, up to 8))”; the “Cooling after 1 h” value is “M (“M” for “medium” (score above 1, up to 4))”. In addition, in the test with panelists (mouth), the “time of max cooling” value was found to be 5 min; the Max. cooling result was “M (“M” for “medium” (score above 1, up to 4))”; the “Cooling after 1 h” value is recorded as “L (“L” for “low” (score above 0, up to 1))”.
With `C[C@H]1C[C@@](C)(c2ccc(F)cc2)C[C@@H]2[C@@H]1N(C)OC2(C)C` (racemic) [Compound 102, rac-(3aR,5R,7S,7aR)-5-(4-fluorophenyl)-1,3,3,5,7-pentamethyloctahydrobenzo[c]isoxazole], the pEC50 at hTRPM8 is over 7.30. Moreover, in test [1], the “time of max cooling” value worked out at 10 min; the Max. cooling result is reported as “S (“S” for “strong” (score above 4, up to 8))”; the “Cooling after 1 h” value was “M (“M” for “medium” (score above 1, up to 4))”. Moreover, in the test on panelists (mouth), the “time of max cooling” value worked out at 10 min; the Max. cooling result is given as “M (“M” for “medium” (score above 1, up to 4))”; the “Cooling after 1 h” value is “M (“M” for “medium” (score above 1, up to 4))”.

By pEC50 is commonly meant the EC50 on a negative log10 scale, so that one unit is a factor of ten.
